Reference: US9182350B2, “Naphthalene-based two-photon fluorescent probes, preparation method and use thereof” (DALIAN UNIVERSITY OF TECHNOLOGY, priority 2012, dated 2015)
Converted amounts (≈) assume the structure as drawn.

What was measured:
HeLa cells = assay: Two-photon fluorescence labeling of cancer cells; assay type: cell-based; settings: 4 μL probe-DMSO solution (4 μM), 60 min, 5% CO2, 37° C., PBS wash
Description: (§1) FIG. 2 is the two-photon fluorescent imaging of fluorescent probe compound A1 in the tumor cells and non-tumor cells in example 2. Hela cells and HEK293 cells were incubated with 4 μL of A1-DMSO (4.0 μM) for 60 min in 5% CO2 at 37° C. The representative areas were selected and imaged with oil-immersion objective lens (100×). The resulting images are representative of replicate experiments (n=3). The images were recorded with the emission in the range of 500-550 nm. FIG. 2 (a) is confocal image of Hela cell, FIG. 2 (b) is confocal image of HEK293 cell.
(§2) FIG. 10 is two-photon fluorescent imaging of fluorescent probe compound A2 in the tumor cells and non-tumor cells in example 14. […] The images of FIG. 10 (a1) and (b1) were recorded with the emission in the range of 500-550 nm. The images of FIG. 10 (a2) and (b2) were recorded with the emission in the range of 570-650 nm.
(§3) Compound A1 was used, which was synthesized in the example 1. […] The fluorescence imaging was obtained with a two-photon spectral confocal multiphoton microscope. […] The images were recorded with the emission in the range of 500-550 nm.
(§4) Compound A5 was used, which was synthesized in the example 13. […] The fluorescence imaging was obtained with a two-photon spectral confocal multiphoton microscope. […] The images of FIG. 10(a1) and FIG. 10(b1) were recorded with the emission in the range of 500-550 nm. […]

HEK 293 cells = assay: Two-photon fluorescence labeling of non-cancer cells; assay type: cell-based; settings: 4 μL probe-DMSO solution (4 μM), 60 min, 5% CO2, 37° C., PBS wash
Description: as §1, §2, §3, §4

[1] = system: tumor tissue sections of mice' lungs; assay: Two-photon fluorescence labeling of tumor tissue sections; settings: sections soaked in probe PBS solution (10 μM), 30 min
Description: (§5) FIG. 8 is the two-photon fluorescent imaging of fluorescent probe compound A4 for the tumor tissues and non-tumor tissues of mice' lungs in example 11. The sections of tumor tissues and non-tumor tissues of mice' lungs were incubated with 4 μL of A4 (10.0 μM). The representative areas were selected and imaged with oil-immersion objective lens (100×). The resulting images are representative of replicate experiments (n=3). FIG. 8 (a1) and (a2) are the confocal images of tumor tissue sections of mice' lungs after adding probe A4, FIG. 8 (b1) and (b2) are the confocal images of non-tumor tissue sections of mice' lungs after adding probe A4. The images of FIG. 8 (a1) and (b1) were recorded with the emission in the range of 500-550 nm. The images of FIG. 8 (a2) and (b2) were recorded with the emission in the range of 570-650 nm.
(§6) FIG. 11 is two-photon fluorescent imaging of fluorescent probe compound A5 for the tumor tissues and non-tumor tissues of mice' lungs in example 15. The sections of tumor tissues and non-tumor tissues of mice' lungs were incubated with 4 μL of […] (10.0 μM). The representative areas were selected and imaged with oil-immersion objective lens (100×). […] The images of FIG. 11 (a1) and (b1) were recorded with the emission in the range of 500-550 nm. The images of FIG. 11 (a2) and (b2) were recorded with the emission in the range of 570-650 nm.
(§7) Tumor tissue sections and non-tumor tissues sections of mice' lungs were soaked in the compound A2 PBS solution (10 μM), respectively. After 30 min, take out the section, mounting, safekeeping, the fluorescence images were obtained by two-photon spectral confocal multiphoton microscope. […] The images were recorded with the emission in the range of 500-550 nm.
as §7, with “A4” for “A2”, “nm. […]” for “nm.”

[2] = system: non-tumor tissue sections of mice' lungs; assay: Two-photon fluorescence labeling of non-tumor tissue sections; settings: sections soaked in probe PBS solution (10 μM), 30 min
Description: as §5, §6, §7
as §7, with “A4” for “A2”, “nm. […]” for “nm.”

[3] = Water solubility experiment (absorbance vs concentration at maximum absorption wavelength)
Description: (§8) The absorbance of different concentrations of compound A2 solution at maximum absorption wavelength was detected. The results are representative value from replicate experiments (n=3).
(§9) The absorbance of different concentrations of compound A4 solution at maximum absorption wavelength was detected. The results are representative value from replicate experiments (n=3).
(§10) The experiment instrument is Agilent 8453 U-V spectrophotometer.

physchem = settings: water
Description: as §8, §9, §10

COc1ccc2c(c1)c(CC(=O)NCCCCCCNc1ccc3c4c(cccc14)-c1nc4ccc([N+](=O)[O-])cc4nc1-3)c(C)n2C(=O)c1ccc(Cl)cc1 [Compound A5]
fluorescence signal in HeLa cells (two-photon confocal imaging) (HeLa cells): strong fluorescence signals | fluorescence signal in HEK 293 cells (two-photon confocal imaging) (HEK 293 cells): no any fluorescence signal | fluorescence signal in tumor tissue sections of mice' lungs (two-photon confocal imaging) [1]: strong fluorescence signals | fluorescence signal in non-tumor tissue sections of mice' lungs (two-photon confocal imaging) [2]: no any fluorescence signals

COc1ccc2c(c1)c(CC(=O)NCCCCCCNc1ccc3c4c1cccc4c(=O)n1c4ccccc4nc31)c(C)n2C(=O)c1ccc(Cl)cc1 [Compound A2]
fluorescence signal in tumor tissue sections of mice' lungs (two-photon confocal imaging) [1]: strong fluorescence signals | fluorescence signal in non-tumor tissue sections of mice' lungs (two-photon confocal imaging) [2]: no any fluorescence signals | solubility [3]: 5 µM (≈ 3.62 µg/mL)

COc1ccc2c(c1)c(CC(=O)NCCCCCCNc1ccc3c4c(cccc14)C(=O)N(C)C3=O)c(C)n2C(=O)c1ccc(Cl)cc1 [Compound A1]
fluorescence signal in HeLa cells (two-photon confocal imaging) (HeLa cells): strong fluorescence signals | fluorescence signal in HEK 293 cells (two-photon confocal imaging) (HEK 293 cells): no any fluorescence signal

COc1ccc2c(c1)c(CC(=O)NCCCCCCNc1ccc3c4c(cccc14)-c1nc4ccccc4nc1-3)c(C)n2C(=O)c1ccc(Cl)cc1 [Compound A4]
fluorescence signal in tumor tissue sections of mice' lungs (two-photon confocal imaging) [1]: strong fluorescence signals | fluorescence signal in non-tumor tissue sections of mice' lungs (two-photon confocal imaging) [2]: no any fluorescence signals | solubility (physchem): 24 µM (≈ 17 µg/mL)
